According to patent US9725449B2, “Tricyclic compounds as anticancer agents” (BRISTOL-MYERS SQUIBB COMPANY, priority 2015, dated 2017):
pIC50: −log10 of the molar value.

Biological target: BRD4 (Homo sapiens, UniProt O60885)
Test: Time resolved fluorescence resonance energy transfer (TR-FRET) binding assay, bromodomain BRD4
Conditions: one of the FRET assays described; read-out: FRET BRD4 IC50

SMILES | pIC50
[2H]C([2H])([2H])c1nnn(C)c1-c1cnc2c3c(OC)nc(C(C)=O)cc3n([C@H](c3ncccc3F)C3CCOCC3)c2c1 [Example 308, 1-{8-[(S)-(3-Fluoropyridin-2-yl)(oxan-4-yl)methyl]-13-methoxy-5-[4-(^2H3)methyl-1-methyl-1H-1,2,3-triazol-5-yl]-3,8,12-triazatricyclo[7.4.0.0^2,^7]trideca-1(9),2(7),3,5,10,12-hexaen-11-yl}ethan-1-one] | > 8.00
[2H]C([2H])([2H])c1nnn(C)c1-c1cnc2c3c(OC)nc(C(C)(C)O)cc3n([C@H](c3ncccc3F)C3CCOCC3)c2c1 [Example 309, 2-{8-[(S)-(3-Fluoropyridin-2-yl)(oxan-4-yl)methyl]-13-methoxy-5-[4-(^2H3)methyl-1-methyl-1H-1,2,3-triazol-5-yl]-3,8,12-triazatricyclo[7.4.0.0^2,^7]trideca-1(9),2(7),3,5,10,12-hexaen-11-yl}propan-2-ol] | > 8.00
[2H]C([2H])([2H])c1nnn(C)c1-c1cnc2c3c(OC)nc(C(C)=O)cc3n([C@@H](c3ncccc3F)C3CCOCC3)c2c1 [Example 310, 1-{8-[(R)-(3-Fluoropyridin-2-yl)(oxan-4-yl)methyl]-13-methoxy-5-[4-(^2H3)methyl-1-methyl-1H-1,2,3-triazol-5-yl]-3,8,12-triazatricyclo[7.4.0.0^2,^7]trideca-1(9),2(7),3,5,10,12-hexaen-11-yl}ethan-1-one] | > 8.00
COc1nc(C(C)(C)O)cc2c1c1ncc(-c3c(C)nnn3C)cc1n2[C@@H](c1ncccc1F)C1CCOCC1 [Example 311, 2-{8-[(R)-(3-Fluoropyridin-2-yl)(oxan-4-yl)methyl]-13-methoxy-5-[4-(^2H3)methyl-1-methyl-1H-1,2,3-triazol-5-yl]-3,8,12-triazatricyclo[7.4.0.0^2,^7]trideca-1(9),2(7),3,5,10,12-hexaen-11-yl}propan-2-ol] | > 8.00
Cc1nnn(C)c1-c1cnc2c3c(O)nc(C(C)(C)O)cc3n([C@@H](c3ncccc3F)C3CCOCC3)c2c1 [Example 312, 8-[(R)-(3-Fluoropyridin-2-yl)(oxan-4-yl)methyl]-11-(2-hydroxypropan-2-yl)-5-[4-(^2H3)methyl-1-methyl-1H-1,2,3-triazol-5-yl]-3,8,12-triazatricyclo[7.4.0.0^2,^7]trideca-1(9),2(7),3,5,10,12-hexaen-13-ol] | > 8.00
[2H]C([2H])([2H])c1nnn(C)c1-c1cnc2c3c(OC)nc(N(C)CCNC)cc3n([C@H](c3ncccc3F)C3CCOCC3)c2c1 [Example 313, 8-[(S)-(3-Fluoropyridin-2-yl)(oxan-4-yl)methyl]-13-methoxy-N-methyl-5-[4-(^2H3)methyl-1-methyl-1H-1,2,3-triazol-5-yl]-N-[2-(methylamino)ethyl]-3,8,12-triazatricyclo[7.4.0.0^2,^7]trideca-1(9),2(7),3,5,10,12-hexaen-11-amine] | > 5.82
[2H]C([2H])([2H])c1nnn(C)c1-c1cnc2c3cnc(Cl)cc3n([C@H](c3ccccc3F)C3CCOCC3)c2c1 [Example 315] | > 8.00
Cc1nnn(C)c1-c1cnc2c3cnc(Cl)cc3n(C(c3ncccc3F)C3CCOCC3)c2c1 (stereo not shown) [Example 316] | > 8.00
Cc1nnn(C)c1-c1cnc2c3cnc(Cl)cc3n([C@H](c3ccc(F)cc3)C3CCOCC3)c2c1 [Example 322] | > 8.00
Cc1nnn(C)c1-c1cnc2c3cnc(Cl)cc3n([C@H](c3ccc(Cl)cn3)C3CCOCC3)c2c1 [Example 323] | > 8.00
Cc1noc(C)c1-c1cnc2c3cnc(Cl)cc3n(C(c3ncccc3F)C3CCOCC3)c2c1 (stereo not shown) [Example 324, 11-Chloro-5-(dimethyl-1,2-oxazol-4-yl)-8-[(3-fluoropyridin-2-yl)(oxan-4-yl)methyl]-3,8,12-triazatricyclo[7.4.0.0^2,^7]trideca-1(9),2(7),3,5,10,12-hexaene] | > 5.82
Cc1noc(C)c1-c1cnc2c3cnc(Cl)cc3n([C@H](c3ccc(F)cc3)C3CCOCC3)c2c1 [Example 326] | > 8.00
C=C(OCC)c1cc2c(cn1)c1ncc(-c3c(C)noc3C)cc1n2[C@H](c1ccc(F)cc1)C1CCOCC1 [Example 329, 5-(Dimethyl-1,2-oxazol-4-yl)-11-(1-ethoxyethenyl)-8-[(S)-(4-fluorophenyl)(oxan-4-yl)methyl]-3,8,12-triazatricyclo[7.4.0.0^2,^7]trideca-1(9),2(7),3,5,10,12-hexaene] | > 8.00
CC(=O)c1cc2c(cn1)c1ncc(-c3c(C)noc3C)cc1n2[C@H](c1ccc(F)cc1)C1CCOCC1 [Example 330, 1-[5-(Dimethyl-1,2-oxazol-4-yl)-8-[(S)-(4-fluorophenyl)(oxan-4-yl)methyl]-3,8,12-triazatricyclo[7.4.0.0^2,^7]trideca-1(9),2(7),3,5,10,12-hexaen-11-yl]ethan-1-one] | > 8.00
Cc1noc(C)c1-c1cnc2c3cnc(C(C)(C)O)cc3n([C@H](c3ccc(F)cc3)C3CCOCC3)c2c1 [Example 331, 2-[5-(Dimethyl-1,2-oxazol-4-yl)-8-[(S)-(4-fluorophenyl)(oxan-4-yl)methyl]-3,8,12-triazatricyclo[7.4.0.0^2,^7]trideca-1(9),2(7),3,5,10,12-hexaen-11-yl]propan-2-ol] | > 8.00
[2H]C([2H])([2H])c1nnn(C)c1-c1cnc2c3cnc(C(C)(C)O)cc3n([C@H](c3ccccc3F)C3CCOCC3)c2c1 [Example 332] | > 8.00

SMILES | pIC50
[2H]C([2H])([2H])c1nnn(C)c1-c1cnc2c3cnc(C(C)=O)cc3n([C@H](c3ccccc3F)C3CCOCC3)c2c1 [Example 333] | > 8.00
Cc1noc(C)c1-c1cnc2c3cnc(C(C)(C)O)cc3n([C@H](c3ccccc3)C3CCOCC3)c2c1 [Example 335] | > 8.00
Cc1nnn(C)c1-c1cnc2c3cnc(C(C)(C)O)cc3n([C@H](c3ccc(F)cc3)C3CCOCC3)c2c1 [Example 336] | > 8.00
CC(=O)c1cc2c(cn1)c1ncc(-c3c(C)nnn3C)cc1n2[C@H](c1ccc(F)cc1)C1CCOCC1 [Example 337] | > 8.00
Cc1noc(C)c1-c1cnc2c3cnc(C(C)(C)O)cc3n([C@H](c3ncccc3F)C3CCOCC3)c2c1 [Example 338] | > 8.00
Cc1nnn(C)c1-c1cnc2c3cnc(C(C)(C)O)cc3n([C@H](c3ncccc3F)C3CCOCC3)c2c1 [Example 339] | > 8.00
CCc1nnn(C)c1-c1cnc2c3cnc(C(C)(C)O)cc3n([C@H](c3ccccc3)C3CCOCC3)c2c1 [Example 340, 2-[5-(4-Ethyl-1-methyl-1H-1,2,3-triazol-5-yl)-8-[(S)-oxan-4-yl(phenyl)methyl]-3,8,12-triazatricyclo[7.4.0.0^2,^7]trideca-1(9),2(7),3,5,10,12-hexaen-11-yl]propan-2-ol] | > 8.00
[2H]C([2H])([2H])c1nnn(C)c1-c1cnc2c3c(NCC(F)(F)F)ncc(S(C)(=O)=O)c3n([C@H](c3ncccc3F)C3CCOCC3)c2c1 [Example 341, 8-[(S)-(3-Fluoropyridin-2-yl)(oxan-4-yl)methyl]-10-methanesulfonyl-5-[4-(^2H3)methyl-1-methyl-1H-1,2,3-triazol-5-yl]-N-(2,2,2-trifluoroethyl)-3,8,12-triazatricyclo[7.4.0.0^2,^7]trideca-1(13),2(7),3,5,9,11-hexaen-13-amine] | > 9.00
[2H]C([2H])([2H])c1nnn(C)c1-c1cnc2c3c(OC)nc(S(C)(=O)=O)cc3n([C@H](c3ccccc3)C3CCOCC3)c2c1 [Example 342, 11-Methanesulfonyl-13-methoxy-5-[4-(^2H3)methyl-1-methyl-1H-1,2,3-triazol-5-yl]-8-[(S)-oxan-4-yl(phenyl)methyl]-3,8,12-triazatricyclo[7.4.0.0^2,^7]trideca-1(13),2(7),3,5,9,11-hexaene] | > 8.00
[2H]C([2H])([2H])c1nnn(C)c1-c1cnc2c3c(OC)nc(N4CCC(F)(F)CC4)cc3n([C@H](c3ccccc3)C3CCOCC3)c2c1 [Example 343, 11-(4,4-Difluoropiperidin-1-yl)-13-methoxy-5-[4-(^2H3)methyl-1-methyl-1H-1,2,3-triazol-5-yl]-8-[(S)-oxan-4-yl(phenyl)methyl]-3,8,12-triazatricyclo[7.4.0.0^2,^7]trideca-1(13),2(7),3,5,9,11-hexaene] | > 9.00
[2H]C([2H])([2H])c1nnn(C)c1-c1cnc2c3c(OC)nc(C(C)(C)O)cc3n(C(c3ccccc3)C3CCC(F)(F)CC3)c2c1 (stereo not shown) [Example 345, 2-{8-[(4,4-Difluorocyclohexyl)(phenyl)methyl]-13-methoxy-5-[4-(^2H3)methyl-1-methyl-1H-1,2,3-triazol-5-yl]-3,8,12-triazatricyclo[7.4.0.0^2,^7]trideca-1(13),2(7),3,5,9,11-hexaen-11-yl}propan-2-ol] | > 9.00
[2H]C([2H])([2H])c1nnn(C)c1-c1cnc2c3c(OC)nc(C(C)(C)O)cc3n(C(c3ccccc3)C3CCC(F)(F)CC3)c2c1 (stereo not shown) [Example 346, 2-{8-[(4,4-Difluorocyclohexyl)(phenyl)methyl]-13-methoxy-5-[4-(^2H3)methyl-1-methyl-1H-1,2,3-triazol-5-yl]-3,8,12-triazatricyclo[7.4.0.0^2,^7]trideca-1(13),2(7),3,5,9,11-hexaen-11-yl}propan-2-ol] | > 9.00
[2H]C([2H])([2H])c1nnn(C)c1-c1cnc2c3cc(Cl)cnc3n([C@H](c3ccccc3)C3CCOCC3)c2c1 [Example 347, 12-Chloro-5-[4-(^2H3)methyl-1-methyl-1H-1,2,3-triazol-5-yl]-8-[(S)-oxan-4-yl(phenyl)methyl]-3,8,10-triazatricyclo[7.4.0.0^2,^7]trideca-1(13),2(7),3,5,9,11-hexaene] | > 5.82
[2H]C([2H])([2H])c1nnn(C)c1-c1cnc2c3cc(C(=O)OC)cnc3n([C@H](c3ccccc3)C3CCOCC3)c2c1 [Example 348, Methyl 5-[4-(^2H3)methyl-1-methyl-1H-1,2,3-triazol-5-yl]-8-[(S)-oxan-4-yl(phenyl)methyl]-3,8,10-triazatricyclo[7.4.0.0^2,^7]trideca-1(13),2(7),3,5,9,11-hexaene-12-carboxylate] | > 8.00
[2H]C([2H])([2H])c1nnn(C)c1-c1cnc2c3cc(C(C)(C)O)cnc3n([C@H](c3ccccc3)C3CCOCC3)c2c1 [Example 349, 2-{5-[4-(^2H3)Methyl-1-methyl-1H-1,2,3-triazol-5-yl]-8-[(S)-oxan-4-yl(phenyl)methyl]-3,8,10-triazatricyclo[7.4.0.0^2,^7]trideca-1(13),2(7),3,5,9,11-hexaen-12-yl}propan-2-ol] | > 9.00
